Reference: PMC6200808 (2018)

Experiments:
[1] = test system: NEO1A (RNA, aptamer) GGACUGGGCGAGAAGUUUAGUCC; test: ITC; conditions: for Kd: buffer IC (approximates intracellular salt; composition not shown), buffer IC, 25 °C
[2] = test system: TSM (Thymidylate Synthase mRNA region) (RNA, mRNA element) CCCCCCCGCCGCGCCAUGCCUGUGGCCGGUCGG; conditions: column head extracted as (M), μ lost
[3] = test system: TOB3A (RNA, aptamer) GGCACGAGGUUUAGCUACACUCGUGCC; conditions: column head extracted as (M), μ lost
[4] = test system: NEO4A (RNA, aptamer) CUUUGCGAUGUCCUUUAAUGGUCCGCGAGG; test: ITC; conditions: buffer IC (approximates intracellular salt; composition not shown), 25 °C
[5] = test system: 16S (16S rRNA Decoding region) (RNA, rRNA) GGCGUCACACCUUCGGGUGAAGUCGCC; conditions: column head extracted as (M), μ lost

SMILES	Kd ([1]; N = 3)	Dissociation Constants [2]	Dissociation Constants [3]	Kd ([4]; N = 2)	Dissociation Constants [5]	binding ([1]; 20 μM aptamer in cell, tetracycline concentration not stated)	Kd ([1]; N = 5)	Kd ([1]; N = 8)	Kd ([4]; N = 3)
NC[C@H]1O[C@H](O[C@H]2[C@H](O)[C@@H](O[C@H]3O[C@H](CO)[C@@H](O)[C@H](N)[C@H]3O)[C@H](N)C[C@@H]2N)[C@H](O)[C@@H](O)[C@@H]1O	43 ± 3.6 µM	1.03e-05 ± 6.65e-06 M	7.38e-05 ± 3.96e-06 M	10.7 ± 4.2 µM	3.71e-05 ± 4.38e-06 M				
CN(C)[C@@H]1C(=O)C(C(N)=O)=C(O)[C@@]2(O)C(=O)C3=C(O)c4c(O)cccc4[C@@](C)(O)[C@H]3C[C@@H]12						no			
NC[C@@H]1O[C@H](O[C@H]2[C@@H](O)[C@H](O[C@@H]3[C@@H](O)[C@H](N)C[C@H](N)[C@H]3O[C@H]3O[C@H](CO)[C@@H](O)[C@H](O)[C@H]3N)O[C@@H]2CO)[C@H](N)[C@@H](O)[C@@H]1O		6.29e-06 ± 3.49e-06 M	1.72e-05 ± 1.96e-06 M		5.31e-06 ± 1.85e-06 M		1.4 ± 0.19 µM		
NC[C@@H]1O[C@H](O[C@H]2[C@@H](O)[C@H](O[C@@H]3[C@@H](O)[C@H](N)C[C@H](N)[C@H]3O[C@H]3O[C@H](CN)[C@@H](O)[C@H](O)[C@H]3N)O[C@@H]2CO)[C@H](N)[C@@H](O)[C@@H]1O		8.8e-07 ± 1.1e-07 M	2.2e-06 ± 5e-07 M		1.93e-06 ± 5.8e-07 M			0.29 ± 0.054 µM	0.099 ± 0.036 µM
CN[C@@H]1[C@@H](O)[C@@H](O[C@@H]2[C@@H](O)[C@H](O[C@H]3O[C@H]([C@@H](C)O)[C@@H](O)[C@H](O)[C@H]3N)[C@@H](N)C[C@H]2N)OC[C@]1(C)O							26 ± 9.3 µM		
NC[C@H]1O[C@H](O[C@H]2[C@H](O)[C@@H](O[C@H]3O[C@H](CO)[C@@H](O)[C@H](N)[C@H]3O)[C@H](N)C[C@@H]2N)[C@H](N)[C@@H](O)[C@@H]1O		6.5e-06 ± 3.2e-06 M	2.43e-06 ± 1.37e-06 M		8.9e-06 ± 3.54e-06 M		0.75 ± 0.26 µM		
NC[C@H]1O[C@H](O[C@H]2[C@H](O)[C@@H](O[C@H]3O[C@H](CO)[C@@H](O)[C@H](N)[C@H]3O)[C@H](N)C[C@@H]2N)[C@H](N)C[C@@H]1O	4.8 ± 0.95 µM	5.75e-06 ± 1.87e-06 M	2.4e-07 ± 1e-07 M		1.03e-05 ± 3.87e-06 M				
